Measured values published in publication PMC3024946, “Hydroxyproline-containing collagen analogs trigger the release and activation of collagen-sequestered proMMP-2 by competition with prodomain-derived peptide P33-42” (Fibrogenesis & Tissue Repair, 2011).

What was measured:
ActMMP-2 [1] = experiment: Fluorogenic short-substrate assay, activity of actMMP-2; assay type: biochemical, human; settings: CI-coated wells
Experimental: (§1) Enzymatic activities of MMPs were studied spectrofluorimetrically by cleavage of fluorogenic substrates in MMP activity buffer within 2 to 5 h. For gelatinases 800 nM MCA-Pro-Leu-Gly-Leu-Dnp-Dap-Ala-Arg-NH2 (λex/em 328/393 nm; Bachem, Bubendorf, Switzerland) or 10 μg/ml DQ-gelatine were used, according to the method described by Knight et al. for collagenases 800 nM MCA-Pro-Cha-Gly-Nva-His-Ala-Dpa-NH2 (λex/em 280/360 nm; Anaspec, San José, CA, USA). In some experiments, proMMP-2 was fully activated in the presence of 1 mM APMA prior to the kinetic measurements. A quantity of 50 ng pro- or actMMP-2 alone or mixed with 10- to 150-fold molar excesses of (GPO)10, GAP, P33-42 or mixtures of (GPO)10 and P33-42, were added to CI-coated, BSA-coated (1 μg/well both) or uncoated wells containing 150 μl of the respective substrate solution. The peptide P33-42 was purchased from the Institute of Biochemistry (Humboldt-University, Berlin, Germany). The influence of CI on MMP-2 enzymatic activity against the quenched fluorescent substrate could be excluded. Background subtraction (measurement without MMPs) was applied to all curves. All experiments were performed with a fluorescence microplate reader (Molecular Devices, Sunnyvale, CA, USA) and black 96-well microtiter plates with a clear bottom (Greiner bio-one, Frickenhausen, Germany).

ProMMP-2 [2] = experiment: Fluorogenic short-substrate assay, activation of proMMP-2; assay type: biochemical, human; settings: proMMP-2; CI-coated wells
Experimental: as §1

ProMMP-2 [3] = experiment: Solid-phase binding of [125I]-proMMP-2 to immobilized collagens/peptides (microwells); parameters: species or system human; settings: ProMMP-2, 2 ng/well; coated wells; 4°C, 2 h; residual radioactivity; mean ± SD, at least five experiments in triplicate
Experimental: (§2) Human recombinant proMMPs and in vitro activated MMPs were obtained from Invitek and were labeled with the [^125I]-Bolton-Hunter reagent according to the manufacturer's instructions (PerkinElmer, Rodgau, Germany) before the buffer was exchanged for phosphate-buffered saline (PBS) with 0.05% (vol/vol) Tween 20 by gel filtration as described previously. Specific radioactivity for [^125I]-MMPs was 3-9 × 10^4 cpm/ng. Precipitation with 10% (wt/vol) trichloroacetic acid and 200 μg of BSA recovered 96% to 100% of protein-bound radioactivity. Aliquots of labeled MMPs were frozen and stored at -80°C. The activity and integrity were checked by substrate gel zymography using SDS-PAGE and autoradiography with overnight exposure to Biomax MS film (Kodak, Stuttgart, Germany) (Figure 2A).
(§3) Native human CI, CIII and CVI were purified from skin tissue and placenta. The CI single chains α1(I) and α2(I) were obtained and modified as described previously. To prepare defined fragments, 2 mg of α1(I) were dissolved in 1 ml of 70% (vol/vol) formic acid at room temperature, the tubes were flushed with nitrogen for 10 min, and then 2 mg of CB were added. After incubation for 4 h at 37°C, free CB was neutralized and the samples were lyophilized. The peptides CB3, CB6, CB7 and CB8 were separated from the reaction mixture by gel filtration followed by ion-exchange chromatography. The resulting peptides were characterized by amino acid analysis and SDS-PAGE [45, 46]. The CB peptides had the following melting temperatures: CB3, 23.9°C; CB6, 26.7°C; CB7, 28.1°C; and CB8, 28.0°C [31].
(§4) The following collagen analogs and control peptides were synthesized as described previously: (GPO)10, H-Gly-Cys-Hyp-(Gly-Pro-Hyp)10-Gly-Cys-Hyp-Gly-NH2; (GPP)10, H-Gly-Cys-Pro-(Gly-Pro-Pro)10-Gly-Cys-Pro-Gly-NH2; and GAP, H-Gly-Ala-Cys-(Gly-Ala-Pro)5-Gly-Phe-Hyp-Gly-Glu-Arg-(Gly-Ala-Pro)5-NH2. Peptides (POG)10, (PPG)10 and (POG)5 were purchased from Peptide International (Louisville, KY, USA). Spontaneous triple-helix assembly was approved by polarimetry over a 10-cm path length at 1°C/min in 10 mM phosphate buffer, pH 7.4. At 5 mg/ml, midpoints of melting curves occurred at 82.3 ± 1.4°C for (GPO)10 and at 45.8 ± 0.8°C for (GPP)10. […] Graphs were calculated from the primary data using a custom fitting program written by D.A. Slatter (Department of Biochemistry, University of Cambridge, Cambridge, UK [48]) to model different possible transitions. All collagens, CI derivatives and peptides were stored in stock solutions of 2 mg/ml in 150 mM acetic acid at -20°C.
(§5) ProMMP-2 and proMMP-9 or actMMP-2 and actMMP-9 were bound to nitrocellulose and polystyrene-immobilized native collagens, CI chains, CB peptides or structural analogs. Serial dilutions of collagens or CI derivatives in 150 mM acetic acid were dotted at 3 × 3 μl to a nitrocellulose membrane with high protein-binding capacity (GE Healthcare, Munich, Germany). Air-dried membranes were blocked with PBS and 0.3% (vol/vol) Tween 20 overnight at 4°C, washed three times, and incubated with 1 ng/ml [^125I]-pro- and actMMP-2 and pro- and actMMP-9 in PBS and 0.3% (vol/vol) Tween 20 for 2 h at room temperature. Membranes were washed again and air-dried, and bound MMP was monitored by autoradiography. In parallel, polystyrene microtiter plates (Dynex, Chantilly, VA, USA) were coated with collagen proteins and peptides. Here 2 μg/well or 200 ng/well proteins and peptides or BSA as control were immobilized in 100 μl of 50 mM ammonium bicarbonate buffer, pH 9.6, by overnight incubation at 4°C. Immobilization efficacies were 20% to 45% of total proteins. Wells were washed three times with PBS, and nonspecific binding sites were blocked with PBS and 0.05% (vol/vol) Tween 20 for 1 h at room temperature. All incubation steps were performed with 2 ng of [^125I]-MMPs at 4°C for 2 h. […]

ActMMP-9 = experiment: Solid-phase binding of [125I]-actMMP-9 to immobilized collagens/peptides (microwells); parameters: species or system human; settings: ActMMP-9, 2 ng/well; coated wells; 4°C, 2 h; residual radioactivity; mean ± SD, at least five experiments in triplicate
Experimental: as §2, §3, §4, §5

ProMMP-9 = experiment: Solid-phase binding of [125I]-proMMP-9 to immobilized collagens/peptides (microwells); parameters: species or system human; settings: ProMMP-9, 2 ng/well; coated wells; 4°C, 2 h; residual radioactivity; mean ± SD, at least five experiments in triplicate
Experimental: as §2, §3, §4, §5

ActMMP-2 [4] = experiment: Solid-phase binding of [125I]-actMMP-2 to immobilized collagens/peptides (microwells); parameters: species or system human; settings: ActMMP-2, 2 ng/well; coated wells; 4°C, 2 h; residual radioactivity; mean ± SD, at least five experiments in triplicate
Experimental: as §2, §3, §4, §5

[5] = soluble human placenta-isolated triple-helical portion of CI; ref [30]; cited from earlier work
Excerpt: We tested α1(I) chains, which rapidly refold into triple-helical conformation in neutral buffers at room temperature, as well as CB-peptides of the α1(I) chain, where the length of the triple helix affects their thermal stability. Here the strength of binding of proMMP-2 and proMMP-9 to CB peptides directly correlated to the thermal stability of its tri ... || Native human CI, CIII and CVI were purified from skin tissue and placenta. The CI single chains α1(I) and α2(I) were obtained and modified as described previously. To prepare defined fragments, 2 mg of α1(I) were dissolved in 1 ml of 70% (vol/vol) formic acid at room temperature, the tubes were flushed with nitrogen for 10 min, and then 2 mg of CB were added. After incubation for 4 h at 37°C, free CB was neutralized and the samples were lyophilized. The peptides CB3, CB6, CB7 and CB8 were separated from the reaction mixture by gel filtration followed by ion-exchange chromatography. The ...

Binding of [125I]-MMPs (ProMMP-2 [3]): 24.0 ± 5.6 % of maximum control | Binding of [125I]-MMPs (ActMMP-9): 3.1 ± 0.5 % of maximum control | Binding of [125I]-MMPs (ProMMP-9): 30.9 ± 3.1 % of maximum control | Binding of [125I]-MMPs (ActMMP-2 [4]): 11.1 ± 1.8 % of maximum control
Substance: CI: native human collagen type I purified from skin tissue and placenta
effect of CI coating on activity (ActMMP-2 [1]): strong reduction in activity | effect of CI coating on activity (ProMMP-2 [2]): strong reduction in activity | melting temperature [5]: 33.8 °C
